# Publication PMC11224465, “Characterization of the somatostatin system in tilapia: implications for growth and reproduction” (Frontiers in Endocrinology, 2024)
# Values joined by “and” are separate entries in the source; they are usually repeats but may differ in a detail not shown here. Identical values can stand only once. “Also recorded” adds a separate entry of the source. Positions of bridges follow the written chain, without caps; N, C: chain ends. Non-standard residues stand in square brackets, D forms with d. Residues, ends and D or L forms follow the SMILES beside them. *: point of attachment. Ahp = NCCCCCCC(=O)O; Bn = c1ccc(C*)cc1
# Tests used:
# [1] = target: T1, tilapia SSTR2a (Oreochromis niloticus, UniProt I3KUD5); experiment: Cre-luc reporter assay, agonist/antagonist combination plus forskolin, COS-7 cells with SSTR2a; assay type: cell-based, Nile tilapia (Oreochromis niloticus); conditions: mean ± SEM
# From the text: (§1) The signaling pathways of SSTRs were studied by inserting the entire coding sequence of the four receptors expressed in the pituitary (SSTR2a, SSTR3a, SSTR5b, and SSTR3b; accession nos. XP_003438730.1, XP_019215873.1, XP_003452896.1, and XP_019213185.1, respectively; Table 1 ) into pcDNA3.1 (Invitrogen) and verified by cloning and sequencing. The sequences were obtained from GenScript Biotech based on sequence information retrieved from GenBank. The procedures for transient transfection of the different cell lines and receptor stimulation have been described previously ([35], [36]). In brief, COS-7 cells were cotransfected with a luciferase reporter plasmid (Cre-luc; 3 µg) and one of the SSTRs (3 µg). As a control treatment, the […] (data not shown). […] Six hours after stimulation, the cells were analyzed using the GloMax multidetection system (Promega).
# (§2) In another set of assays, the SST receptors were exposed to increasing concentrations of cyclosomatostatin, an SSTR antagonist (0–1000 nM; each in triplicate), in combination with octreotide, an SSTR agonist (10 nM), and FSK (20 μM), or increasing concentrations of octreotide (0–1000 nM; each in triplicate) in combination with cyclosomatostatin (10 nM) and FSK (20 μM). […]
# [2] = target: T2, tilapia SSTR3a (Oreochromis niloticus, UniProt I3K8H1); experiment: Cre-luc reporter assay, agonist/antagonist combination plus forskolin, COS-7 cells with SSTR3a; assay type: cell-based, Nile tilapia (Oreochromis niloticus); conditions: in presence of octreotide 10 nM and FSK 20 μM, mean ± SEM, read-out: EC50 on SST-R3a (Cre-luciferase)
# T2 sequence (I3K8H1 1-482): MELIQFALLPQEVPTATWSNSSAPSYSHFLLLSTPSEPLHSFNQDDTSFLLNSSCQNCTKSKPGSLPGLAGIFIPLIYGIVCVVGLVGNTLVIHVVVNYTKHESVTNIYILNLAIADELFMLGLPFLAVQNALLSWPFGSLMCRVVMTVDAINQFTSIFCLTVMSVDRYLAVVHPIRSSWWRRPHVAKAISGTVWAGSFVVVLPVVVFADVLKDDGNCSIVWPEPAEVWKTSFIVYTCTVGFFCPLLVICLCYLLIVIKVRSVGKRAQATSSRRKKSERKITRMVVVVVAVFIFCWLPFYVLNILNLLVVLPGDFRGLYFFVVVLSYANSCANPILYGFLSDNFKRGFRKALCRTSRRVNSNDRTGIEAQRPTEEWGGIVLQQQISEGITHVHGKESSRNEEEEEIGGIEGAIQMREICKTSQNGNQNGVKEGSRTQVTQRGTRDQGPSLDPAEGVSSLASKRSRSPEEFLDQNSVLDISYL
# From the text: as §1, §2
# [3] = target: T3, tilapia SSTR5b (Oreochromis niloticus, UniProt I3J1C6); experiment: Cre-luc reporter assay, agonist/antagonist combination plus forskolin, COS-7 cells with SSTR5b; assay type: cell-based, Nile tilapia (Oreochromis niloticus); conditions: mean ± SEM
# T3 sequence (I3J1C6 1-359): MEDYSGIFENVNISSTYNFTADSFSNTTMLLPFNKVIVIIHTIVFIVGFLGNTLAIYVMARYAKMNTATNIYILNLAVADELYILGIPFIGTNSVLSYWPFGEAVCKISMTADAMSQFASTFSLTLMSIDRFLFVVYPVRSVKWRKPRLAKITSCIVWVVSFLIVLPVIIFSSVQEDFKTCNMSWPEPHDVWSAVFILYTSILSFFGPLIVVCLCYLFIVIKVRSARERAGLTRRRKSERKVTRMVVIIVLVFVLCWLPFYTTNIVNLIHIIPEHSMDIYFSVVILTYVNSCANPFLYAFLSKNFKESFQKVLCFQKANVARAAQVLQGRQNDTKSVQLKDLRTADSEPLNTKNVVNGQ
# From the text: as §1, §2
# [4] = target: T4, tilapia SSTR3b (Oreochromis niloticus, UniProt I3L056); experiment: Cre-luc reporter assay, agonist/antagonist combination plus forskolin, COS-7 cells with SSTR3b; assay type: cell-based, Nile tilapia (Oreochromis niloticus)
# From the text: as §1
# In another set of assays, the SST receptors were exposed to increasing concentrations of cyclosomatostatin, an SSTR antagonist (0–1000 nM; each in triplicate), in combination with octreotide, an SSTR agonist (10 nM), and FSK (20 μM), or increasing concentrations of octreotide (0–1000 nM; each in triplicate) in combination with cyclosomatostatin (10 nM) and FSK (20 μM). Three individual experiments were conducted using distinct batches of COS-7 cells for each experiment and including three replicates for every concentration.
# [5] = test system: FSH plasma levels; experiment: In vivo effect on FSH plasma levels (ELISA) after IP injection; parameters: species or system Nile tilapia (Oreochromis niloticus); conditions: female tilapia, 100 µg/kg IP, sampled 2, 4, 6, 24 h
# Experimental: (§3) Adult female tilapia (body weight 89.29 ± 32.93 g) were injected IP with saline, cyclosomatostatin, or octreotide (100 μg/kg; n = 8 fish per group). The fish were bled from the caudal blood vessels into heparinized syringes at 0, 2, 4, 6, and 24 h after injection. Blood was centrifuged at 3,200 rpm for 30 min at 4°C to obtain plasma samples, which were stored at -20°C until assayed. This standard protocol was used previously to test the effect of GnRH and other hypothalamic neuropeptides on circulating levels of LH, FSH, and GH in tilapia ([33], [37], [38]). Three independent experiments were performed for each treatment. Plasma levels of LH, FSH, and GH were measured by specific competitive ELISAs developed for tilapia ([39], [40]) based on recombinant ([…] or rtiGH. The […] produced against […]β ([40]), or rtGH ([39]), and […]βα ([37]) or rtGH ([39]) was used to generate a standard curve. The sensitivity of plasma measurements was 15.84 pg/ml for LH, 0.24 pg/ml for FSH, and 35.0 pg/ml for GH.
# [6] = test system: LH plasma levels; experiment: In vivo effect on LH plasma levels (ELISA) after IP injection; parameters: species or system Nile tilapia (Oreochromis niloticus); conditions: female tilapia, 100 µg/kg IP, sampled 2, 4, 6, 24 h
# Experimental: as §3
# [7] = test system: GH plasma levels; experiment: In vivo effect on GH plasma levels (ELISA) after IP injection; parameters: species or system Nile tilapia (Oreochromis niloticus); conditions: female tilapia, 100 µg/kg IP, sampled 2, 4, 6, 24 h
# Experimental: as §3
# [8] = target: T1, tilapia SSTR2a; experiment: Cre-luc reporter assay, ligand plus forskolin, COS-7 cells transfected with SSTR2a; assay type: cell-based, Nile tilapia (Oreochromis niloticus); conditions: FSK 20 μM, subnanomolar concentrations
# From the text: as §1
# [9] = target: T2, tilapia SSTR3a; experiment: Cre-luc reporter assay, ligand plus forskolin, COS-7 cells transfected with SSTR3a; assay type: cell-based, Nile tilapia (Oreochromis niloticus); conditions: FSK 20 μM, mean ± SEM, read-out: IC50 on SST-R3a (Cre-luciferase)
# From the text: as §1
# [10] = target: T3, tilapia SSTR5b; experiment: Cre-luc reporter assay, ligand plus forskolin, COS-7 cells transfected with SSTR5b; assay type: cell-based, Nile tilapia (Oreochromis niloticus); conditions: FSK 20 μM, mean ± SEM, read-out: IC50 on SST-R5b (Cre-luciferase)
# From the text: as §1
# [11] = target: T4, tilapia SSTR3b; experiment: Cre-luc reporter assay, ligand plus forskolin, COS-7 cells transfected with SSTR3b; assay type: cell-based, Nile tilapia (Oreochromis niloticus); conditions: FSK 20 μM alone as backdrop
# Experimental: In brief, COS-7 cells were cotransfected with a luciferase reporter plasmid (Cre-luc; 3 µg) and one of the SSTRs (3 µg). […] Six hours after stimulation, the cells were analyzed using the GloMax multidetection system (Promega).
# [12] = test system: human SSTR2; parameters: method as in PMID 8532003; conditions: cited from earlier work
# [13] = test system: SSTR5; parameters: method as in PMID 8532003; conditions: human; cited from earlier work
# [14] = test system: SSTR3a; parameters: method as in PMID 8532003; conditions: cited from earlier work
# [15] = test system: aggressive behavior; parameters: method as in PMID 16887916; conditions: cichlid fish, 4 mg/kg; cited from earlier work
# T4 sequence (I3L056 29-511): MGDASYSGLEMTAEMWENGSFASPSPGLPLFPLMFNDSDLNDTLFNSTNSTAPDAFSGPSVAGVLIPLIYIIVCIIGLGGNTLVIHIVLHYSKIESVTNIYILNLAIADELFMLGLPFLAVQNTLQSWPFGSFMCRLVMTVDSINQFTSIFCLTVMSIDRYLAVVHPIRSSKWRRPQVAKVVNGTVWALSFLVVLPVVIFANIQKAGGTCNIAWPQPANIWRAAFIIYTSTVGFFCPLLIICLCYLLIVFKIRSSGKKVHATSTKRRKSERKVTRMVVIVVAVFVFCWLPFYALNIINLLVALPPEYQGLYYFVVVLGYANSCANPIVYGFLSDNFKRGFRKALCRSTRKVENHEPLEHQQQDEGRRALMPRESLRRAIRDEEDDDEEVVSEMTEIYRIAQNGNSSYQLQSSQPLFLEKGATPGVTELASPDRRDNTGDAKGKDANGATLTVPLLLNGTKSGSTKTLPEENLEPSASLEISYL
# T1 sequence (I3KUD5 1-379): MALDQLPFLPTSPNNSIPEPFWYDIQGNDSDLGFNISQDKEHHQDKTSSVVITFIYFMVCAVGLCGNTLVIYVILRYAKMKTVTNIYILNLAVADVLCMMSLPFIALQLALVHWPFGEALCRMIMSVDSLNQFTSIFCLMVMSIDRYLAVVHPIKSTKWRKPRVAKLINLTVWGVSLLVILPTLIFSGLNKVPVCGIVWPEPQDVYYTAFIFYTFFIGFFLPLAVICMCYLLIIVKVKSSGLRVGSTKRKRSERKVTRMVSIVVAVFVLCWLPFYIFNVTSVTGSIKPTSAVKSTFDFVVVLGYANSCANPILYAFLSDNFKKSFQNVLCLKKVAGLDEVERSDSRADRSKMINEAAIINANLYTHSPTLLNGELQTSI
smiles,measurement,setting,value
"C[C@@H](OCc1ccccc1)[C@@H]1NC(=O)[C@H](CCCCN)NC(=O)[C@@H](Cc2c[nH]c3ccccc23)NC(=O)[C@H](Cc2ccccc2)NC(=O)CCCCCCNC1=O [Cyclosomatostatin, cyclosomatostatin] (cyclo([Ahp]F[dW]KT(Bn)); ring closure inferred)",EC50,"[1]; in presence of octreotide 10 nM and FSK 20 μM, read-out: EC50 on SST-R2a (Cre-luciferase)",189 ± 4.34 nM
same,EC50,[2],0.1 ± 0.001 nM
same,EC50,"[3]; in presence of octreotide 10 nM and FSK 20 μM, read-out: EC50 on SST-R5b (Cre-luciferase)",2.15 ± 0.009 nM
same,EC50,"[4]; COS-7 cells, in presence of octreotide 10 nM and FSK 20 μM, mean ± SEM, read-out: EC50 on SST-R3b (Cre-luciferase)",46.2 ± 3.82 nM
same,Activation of SSTR3b (Cre-luc),[4]; in the presence of both FSK and octreotide,efficient activation
same,FSH plasma levels vs control,[5],increased
same,FSH plasma levels vs control,[5]; listed as SSTR antagonist,remained elevated for 6 h
same,LH plasma levels vs control,[6],increased
same,LH plasma levels vs control,[6]; listed as SSTR antagonist,returned to baseline after 4 h
same,GH plasma levels vs control,[7],the same as in the control fish
"C[C@@H](O)[C@@H]1NC(=O)[C@H](CCCCN)NC(=O)[C@@H](Cc2c[nH]c3ccccc23)NC(=O)[C@H](Cc2ccccc2)NC(=O)[C@@H](NC(=O)[C@H](N)Cc2ccccc2)CSSC[C@@H](C(=O)N[C@H](CO)[C@@H](C)O)NC1=O [Octreotide, octreotide]",Effect on tiSSTR2a Cre-luc activity,[8],inhibited
same,IC50,[9],0.004 nM
same,IC50,[10],906 nM and 157 nM
same,Effect on SSTR3b Cre-luc activity,[11],no discernible activation
same,IC50,"[1]; in presence of cyclosomatostatin 10 nM and FSK 20 μM, read-out: IC50 on SST-R2a (Cre-luciferase)",0.81 ± 0.01 nM
same,IC50,"[3]; in presence of cyclosomatostatin 10 nM and FSK 20 μM, read-out: IC50 on SST-R5b (Cre-luciferase)",17.4 ± 3.14 nM
same,IC50,"[4]; COS-7 cells, in presence of cyclosomatostatin 10 nM and FSK 20 μM, mean ± SEM, read-out: IC50 on SST-R3b (Cre-luciferase)",0.35 ± 0.04 nM
same,FSH plasma levels vs control,[5],reduced
same,FSH plasma levels vs control,[5]; listed as octreotide,decreased
same,LH plasma levels vs control,[6],remained similar to the control; also recorded: no significant effect
same,LH plasma levels vs control,[6]; listed as octreotide,remained unaffected
same,GH plasma levels vs control,[7],significantly decreased
same,Affinity to human SSTR2,[12],high affinity
same,Affinity to SSTR5,[13],high affinity
same,Affinity to SSTR3a,[14],moderate affinity
same,Aggressive behavior,[15],decrease
CC(C)C[C@@H]1NC(=O)CNC(=O)[C@H](CCCCN)NC(=O)[C@H](Cc2c[nH]c3ccccc23)NC(=O)[C@H](Cc2ccc(O)cc2)NC(=O)[C@H](Cc2ccccc2)NC(=O)[C@H](CC(N)=O)NC(=O)[C@H](CCCCN)NC(=O)[C@@H](NC(=O)CNC(=O)[C@H](C)N)CSSC[C@@H](C(=O)O)NC(=O)[C@H](CO)NC(=O)[C@H]([C@@H](C)O)NC1=O [SST3] (H-AGCKNFYWKGLTSC-OH; disulfide 3-14; N-terminus and C-terminus assumed),Effect on tiSSTR2a Cre-luc activity,[8],inhibited
same,IC50,[9],572.9 ± 0.1 nM
same,IC50,[10],720.2 ± 0.5 nM
C[C@H](N)C(=O)N1CCC[C@H]1C(=O)N[C@H]1CSSC[C@@H](C(=O)O)NC(=O)[C@H](CO)NC(=O)[C@H]([C@@H](C)O)NC(=O)[C@H](Cc2ccccc2)NC(=O)[C@H]([C@@H](C)O)NC(=O)[C@H](CCCCN)NC(=O)[C@H](Cc2c[nH]c3ccccc23)NC(=O)[C@H](Cc2ccccc2)NC(=O)[C@H](Cc2ccccc2)NC(=O)[C@H](CC(N)=O)NC(=O)[C@H](CCCCN)NC1=O [SST6] (H-APCKNFFWKTFTSC-OH; disulfide 3-14; N-terminus and C-terminus assumed),Effect on tiSSTR2a Cre-luc activity,[8],inhibited
same,IC50,[9],3.75 ± 0.04 nM
same,IC50,[10],906.1 ± 0.5 nM
